Where two headings read alike, the source gives them in different places. Where a SMILES comes first, the peptide text is derived from it. The star is where a group is joined. X1 = CC(C)CCCC(C)C1CCC2C3CC=C4CC(OC(=O)CCC(=O)*)CCC4(C)C3CCC12C
How the values were obtained:
RSV A long virus strain = assay type: cell-based
Experimental: In this embodiment, an RSV-A long virus strain was used as an infection virus in the present disclosure. The anti-RSV activity of the synthesized polypeptide was determined through CPE detection.
The inhibitory activity of the compounds of Table 1-1-Table 1-5, positive polypeptide in Table 1-11, and positive control T-118 against the RSV-A long virus strain was detected.
(§1) Human Epithelial Pharyngeal Carcinoma Cells (HEp-2) were from the American Type Culture Collection (ATCC), with a catalog number CCL-23. The cells were cultured in a DMEM culture solution in which 10% fetal bovine serum, 1% sodium pyruvate, 1% nonessential amino acids, 2 mM glutamine, 100 U/mL penicillin, and 100 μg/mL streptomycin were added. The RSV A long virus strain was from the ATCC, with a catalog number VR-26.
This study used a plaque reduction experiment to detect the in-vitro activity of a test sample against the RSV A long virus strain. The test sample and a control compound were tested at 8 concentrations in duplicated wells. The HEp-2 cells were digested with trypsin and then diluted to a concentration of 300,000 cells per milliliter by using an experimental culture solution. The diluted cells were added to a 96-well cell test board, with 100 μL per well, corresponding to 30000 cells per well. The cells were cultured overnight in a 37° C. incubator with 5% CO2. On the second day, the test sample was diluted in an experimental culture medium at a fold ratio. The sample diluted at a fold ratio and an equal volume of virus (100 PFU per well) were well mixed and incubated at 37° C. in 5% CO2 for 1 h. Then, the culture solution in the 96-well cell test board was discarded, the sample virus mixed solution (200 μL) was added to the 96-well cell culture plate, and incubated at 37° C. in 5% CO2 for 2 hours. After 2 h, the sample virus mixed solution was discarded, and 200 μL of maintenance culture medium containing 0.8% CMC and the corresponding concentration of the test sample was added. A cell control (cells, without compound treatment or viral infection) and a viral control (cell infection virus, without compound treatment) were set. The cells were cultured for 1 day in the 37° C. incubator with 5% CO2. One day after viral infection, the culture medium was discarded, the cells were fixed with 4% paraformaldehyde, and then permeabilization was performed with 0.5% Triton X-100. After the plate was washed with DPBS, an RSV-specific antibody (RSV antibody, diluted 1:3000) was added and incubated at 37° C. for 1 h. Then, a secondary antibody (donkey anti-goat IgG, diluted 1:500) and incubated at 37° C. for 1 h. The secondary antibody was discarded, a TrueBlue solution was added, dyeing was performed for 10 min; and the plate was washed with running water and then air-dried, and the number of spots in each well was counted by using a microplate imaging counter. Raw data was used for calculating the antiviral activity of the samples.
(§2) The raw data for plaque counts and cell viability tests were used for analyzing the antiviral activity and cytotoxicity of the test samples, respectively. A calculation formula was shown as follows.
% inhibition rate=100−(sample value-cell control average value)/(virus control average value-cell control average value)×100%
(§3) Non-linear fitting analysis was performed on the inhibition rate of the sample by using GraphPad Prism (version 10), so as to calculate the IC50 and CC50 values for the sample.
IC50: in an in-vitro antiviral activity experiment, IC50 represented an inhibition ability indicator of a compound to be tested against the Hep-2 cells infected by the RSV A long virus strain.

[1] = Cytotoxicity test in HEp-2 cells (CCK8 cell viability); assay type: cell-based; conditions: human
Experimental: as §1
A cytotoxicity test and an antiviral test were performed in parallel. The HEp-2 cells were inoculated in the microplate at a density of 30,000 cells per well, and cultured overnight in the 37° C. incubator with 5% CO2. On the next day, the diluted test sample was added. The cell control (cells, without compound treatment) and a culture solution control (culture solution only, without cell or compound treatment) were set. A final concentration of DMSO in the culture solution was 0.5%. The cells were cultured for 1 day in the 37° C. incubator with 5% CO2. Cell viability was detected by using a cell viability detection kit CCK8.
as §2
cell survival rate=(sample value-culture medium control average value)/(cell control average value-culture medium control average value)×100
as §3
CC50: in the in-vitro antiviral activity experiment, CC50 was used to measure the toxicity of the compound to be tested to the Hep-2 cells. To be precise, when the compound to be tested was at a specific concentration, 50% of the Hep-2 cells was caused to die, and this concentration was defined as the CC50. A fitting formula was log (inhibitor) vs. response-Variable slope (four parameters).

[2] = RSV A long virus strain, HEp-2 cells, plaque reduction, 1 day, read-out: IC50
[3] = HEp-2 cells, CCK8, 1 day, read-out: CC50

Compound: CC[C@H](C)[C@H](NC(=O)[C@H](Cc1ccccc1)NC(=O)[C@H](C)NC(=O)[C@H](CC(=O)O)NC(=O)[C@H](Cc1ccccc1)NC(C)=O)C(=O)N[C@@H](CCC(N)=O)C(=O)N[C@@H](CCC(=O)O)C(=O)N[C@H](C(=O)N[C@@H](CC(N)=O)C(=O)N[C@H](C(=O)N[C@@H](CC(N)=O)C(=O)N[C@@H](CCC(=O)O)C(=O)N[C@@H](CC(=O)O)C(=O)N[C@@H](CCC(N)=O)C(=O)N[C@@H](CO)C(=O)N[C@@H](CC(C)C)C(=O)N[C@@H](CCC(=O)O)C(=O)N[C@@H](CCC(N)=O)C(=O)N[C@@H](CO)C(=O)N[C@@H](CC(=O)O)C(=O)N[C@@H](CCC(=O)O)C(=O)N[C@@H](CC(C)C)C(=O)N[C@@H](CC(C)C)C(=O)N[C@@H](CC(C)C)C(=O)N[C@@H](CCC(=O)O)C(=O)N[C@@H](CC(C)C)C(=O)N[C@@H](Cc1c[nH]cn1)C(=O)N[C@@H](CC(C)C)C(=O)N[C@@H](CC(C)C)C(=O)N[C@@H](Cc1c[nH]cn1)C(=O)N[C@@H](CO)C(=O)N[C@@H](CC(C)C)C(=O)N[C@@H](CC(C)C)C(=O)N[C@@H](Cc1c[nH]cn1)C(N)=O)C(C)C)[C@@H](C)CC [Compound 7] (Ac-FDAFIQEINVNEDQSLEQSDELLLELHLLHSLLH-NH2)
- IC50 (RSV A long virus strain): > 8 µM
- CC50 at 1 day [1]: > 8 µM

Compound: CC[C@H](C)[C@H](NC(C)=O)C(=O)N[C@@H](CCC(=O)O)C(=O)N[C@@H](CCC(N)=O)C(=O)N[C@H](C(=O)N[C@@H](CC(N)=O)C(=O)N[C@@H](CCCCN)C(=O)N[C@@H](CCCCN)C(=O)N[C@H](C(=O)N[C@@H](CCC(=O)O)C(=O)N[C@@H](CCC(N)=O)C(=O)N[C@@H](CO)C(=O)N[C@@H](CC(C)C)C(=O)N[C@@H](CCCCN)C(=O)N[C@@H](Cc1ccccc1)C(=O)N[C@H](C(=O)N[C@@H](CCC(=O)O)C(=O)N[C@@H](CCCCN)C(=O)N[C@@H](CO)C(=O)N[C@@H](CC(=O)O)C(=O)N[C@@H](CCCCN)C(=O)N[C@@H](CC(C)C)C(=O)N[C@@H](CC(C)C)C(=O)N[C@@H](CCC(=O)O)C(=O)N[C@@H](CC(N)=O)C(=O)N[C@H](C(=O)N[C@@H](CC(N)=O)C(=O)N[C@@H](CCCCN)C(=O)NCC(=O)N[C@@H](CCCCN)C(=O)N[C@@H](CS)C(=O)N[C@@H](CCC(=O)O)C(=O)N[C@@H](C)C(=O)N[C@@H](C)C(=O)N[C@@H](C)C(=O)N[C@@H](CCCCN)C(=O)N[C@@H](CCCCNC(=O)CCC(=O)OC1CCC2(C)C(=CCC3C2CCC2(C)C(C(C)CCCC(C)C)CCC32)C1)C(N)=O)C(C)C)[C@@H](C)CC)[C@@H](C)CC)C(C)C (stereo partly drawn) [Positive polypeptide 4, reference compound] (Ac-IEQVNKKIEQSLKFIEKSDKLLENVNKGKCEAAAKK(X1)-NH2)
- IC50 (RSV A long virus strain; [2]): 0.19 µM
- CC50 at 1 day [1, 3]: 4.62 µM

Compound: CC[C@H](C)[C@H](NC(=O)[C@H](C)NC(=O)[C@H](C)NC(=O)[C@H](CC(C)C)NC(=O)[C@H](CO)NC(=O)[C@H](CCC(N)=O)NC(=O)[C@H](CC(N)=O)NC(=O)[C@@H](NC(=O)[C@H](CCCCN)NC(=O)[C@H](CCC(=O)O)NC(=O)[C@H](CC(N)=O)NC(=O)[C@@H](NC(=O)[C@H](CCC(N)=O)NC(=O)[C@H](CO)NC(=O)[C@@H](NC(=O)[C@H](CO)NC(=O)[C@H](C)NC(=O)[C@H](CC(=O)O)NC(=O)[C@H](Cc1ccccc1)NC(=O)[C@H](CCC(=O)O)NC(=O)[C@H](CC(=O)O)NC(=O)[C@H](CO)NC(=O)[C@@H]1CCCN1C(=O)[C@H](Cc1ccccc1)NC(=O)[C@@H](NC(C)=O)C(C)C)[C@@H](C)CC)C(C)C)[C@@H](C)CC)C(=O)N[C@@H](CCCNC(=N)N)C(=O)N[C@@H](CCCCN)C(=O)N[C@@H](CO)C(=O)N[C@@H](CC(=O)O)C(=O)N[C@@H](CCC(=O)O)C(=O)N[C@@H](CC(C)C)C(=O)N[C@@H](CC(C)C)C(=O)N[C@@H](Cc1c[nH]cn1)C(=O)N[C@@H](CC(N)=O)C(=O)N[C@H](C(N)=O)C(C)C [Positive polypeptide 6, reference compound] (Ac-VFPSDEFDASISQVNEKINQSLAAIRKSDELLHNV-NH2)
- IC50 (RSV A long virus strain; [2]): > 0.3 µM
- CC50 at 1 day [1, 3]: > 10 µM

Compound: Ac-SLEQVNKKIEQSLESLKKSDKINQSLEEVNKSDELLEAAAKK-NH2 [Compound 49]
- IC50 (RSV A long virus strain): > 8 µM
- CC50 at 1 day [1]: > 8 µM

Compound: CC[C@H](C)[C@H](NC(=O)[C@H](CO)NC(=O)[C@H](C)NC(=O)[C@H](CC(=O)O)NC(=O)[C@H](Cc1ccccc1)NC(C)=O)C(=O)N[C@@H](CCC(=O)O)C(=O)N[C@@H](CCC(=O)O)C(=O)N[C@H](C(=O)N[C@@H](CC(N)=O)C(=O)N[C@@H](CCCNC(=N)N)C(=O)N[C@@H](CCCNC(=N)N)C(=O)N[C@H](C(=O)N[C@@H](CCC(=O)O)C(=O)N[C@@H](CCC(=O)O)C(=O)N[C@@H](CO)C(=O)N[C@@H](CC(C)C)C(=O)N[C@@H](CCCNC(=N)N)C(=O)N[C@@H](CCCNC(=N)N)C(=O)N[C@H](C(=O)N[C@@H](CCC(=O)O)C(=O)N[C@@H](CCC(=O)O)C(=O)N[C@@H](CO)C(=O)N[C@@H](CC(=O)O)C(=O)N[C@@H](CCCNC(=N)N)C(=O)N[C@@H](CCCNC(=N)N)C(=O)N[C@@H](CC(C)C)C(=O)N[C@@H](CCC(=O)O)C(=O)N[C@H](C(=O)N[C@@H](CC(N)=O)C(=O)N[C@@H](CCCCN)C(=O)N[C@@H](CCCCN)C(=O)N[C@@H](C)C(=O)NCC(=O)N[C@@H](CO)C(=O)NCC(=O)N[C@@H](CO)C(=O)NCC(=O)N[C@@H](CCCCNC(=O)CCC(=O)OC1CCC2(C)C(=CCC3C2CCC2(C)C(C(C)CCCC(C)C)CCC32)C1)C(N)=O)C(C)C)[C@@H](C)CC)[C@@H](C)CC)C(C)C (stereo partly drawn) [Compound 12] (Ac-FDASIEEVNRRIEESLRRIEESDRRLEVNKKAGSGSGK(X1)-NH2)
- IC50 (RSV A long virus strain; [2]): 0.0284 µM
- CC50 at 1 day [1, 3]: > 8 µM

Compound: CC[C@H](C)[C@H](NC(=O)[C@H](CCCCN)NC(=O)[C@H](CCC(=O)O)NC(=O)[C@H](CC(C)C)NC(=O)[C@H](CO)NC(=O)[C@H](CCC(N)=O)NC(=O)[C@H](CC(N)=O)NC(=O)[C@@H](NC(=O)[C@H](CCCCN)NC(=O)[C@H](CCC(=O)O)NC(=O)[C@H](CC(N)=O)NC(=O)[C@@H](NC(=O)[C@H](CCC(N)=O)NC(=O)[C@H](CO)NC(=O)[C@H](C)NC(=O)[C@H](CC(=O)O)NC(=O)[C@H](Cc1ccccc1)NC(=O)[C@@H](NC(=O)[C@H](CC(C)C)NC(=O)[C@H](CCC(=O)O)NC(=O)[C@H](CC(=O)O)NC(=O)[C@H](Cc1ccc(O)cc1)NC(C)=O)C(C)C)C(C)C)[C@@H](C)CC)C(=O)N[C@@H](CCCNC(=N)N)C(=O)N[C@@H](CCCCN)C(=O)N[C@@H](CO)C(=O)N[C@@H](CC(=O)O)C(=O)N[C@@H](CCC(=O)O)C(=O)N[C@@H](CC(C)C)C(=O)N[C@@H](CC(C)C)C(=O)N[C@@H](Cc1c[nH]cn1)C(=O)N[C@@H](CC(N)=O)C(=O)N[C@H](C(N)=O)C(C)C [Compound 23] (Ac-YDELVFDASQVNEKINQSLEKIRKSDELLHNV-NH2)
- IC50 (RSV A long virus strain; [2]): 2.33 µM
- CC50 at 1 day [1, 3]: > 8 µM

Source: patent US20260250325A1, “Antiviral Polypeptide Membrane Fusion Inhibitor, and Preparation Method and Application Thereof” (priority 2025, published 2026)
